Values of other authors, collected in patent US20250212890A1, “COMBINATIONS OF AV3 MUTANT POLYPEPTIDES AND Bt TOXINS FOR PEST CONTROL” (Vestaron Corporation, priority 2022, published 2025).

What was measured:
[1] = tested on: mammalian sodium channels; settings: Moran et al., Toxicon 2009
[2] = tested on: crustacean and insect sodium channels; settings: Moran et al., Toxicon 2009

Av3
selectivity for mammalian sodium channels [1]: low selectivity
selectivity for crustacean and insect sodium channels [2]: high selectivity
